Source: patent publication US11020468B2, “Compositions, methods and therapies for administering antigen peptide” (priority 2010, dated 2021)

What was measured:
P. acnes (ATCC6919) = assay: Anti-inflammatory effect of peptides against intradermic inflammation caused by P. acnes in mice; type: in vivo, Balb/c mice; conditions: for anti-inflammatory effect against inflammation caused by P. acnes: vs PBS
Experimental: Living bacterial cells of P. acnes were put in a deaerated physiological saline while keeping an anaerobic condition to prepare a suspension with the number of the living bacterial cells of P. acnes of 5×10^7 cells/ml, 1×10^8 cells/ml, or 5×10^8 cells/ml. The anaerobic condition was kept by spraying a nitrogen gas. The number of the living bacterial cells of P. acnes was calculated based on the assumption that OD measurement value of 0.98-1.02 at 550 nm measured by a spectrophotometer corresponds to 5×10^8 cells/ml, with reference to Ramstad S. et al., Photochem. Photobiol. Sci., 2006, 5, 66-72.
50 μl of the prepared suspension of P. acnes was intradermically injected into shaven abdominal midlines, neck portions, lumbar dorsal portions, tail root dorsal portions, and auricles of male Balb/c mice (9-10 weeks old). The inflammatory areas (major axis×minor axis: mm^2) at individual portions to which the suspension was injected intradermically were measured at predetermined times. Each group consisted of five individuals.
Accordingly, the anti-inflammatory effects of individual peptides were determined under the same conditions, i.e. by intradermically injecting 50 μl of P. acnes (5×10^8 cells/ml) into the abdominal midline and measuring the inflammatory area (mm^2) five days after the injection. FIG. 3 illustrates the procedure for examining the anti-inflammatory effect.
(§1) FIG. 3 is a drawing schematically illustrating the procedure for examining the anti-inflammatory effect. […] Then, P. acnes was intradermically injected into the abdominal midlines of the mice, and the inflammatory areas were measured 5 days after the injection (Day “23” in FIG. 3). Each group consisted of 10 mice. As Comparative Examples, there were prepared a group of mice to which PBS without PepA was administered and a group of mice to which PepB or PepC was administered instead of PepA, and P. acnes was injected into the groups similarly.
The anti-inflammatory effects of individual peptides were examined using an inflammation causing system under the same conditions as in Example 4 except that the peptides to be administered to mice before injection of P. acnes were changed from PepA, PepB, and PepC to PepA and PepD.

[1] = test system: acne-patient-derived P. acnes (patient strains 1-3); assay: Anti-inflammatory effect of PepA against inflammation caused by patient-derived P. acnes in mice; type: in vivo; conditions: for P (inflammatory area compared with control group given PBS): 5 days after injection
Experimental: as §1
The anti-inflammatory effect of PepA was examined by the same procedure as in Example 5 except that bacterial cells of P. acnes to be injected into mice were the acne-patient-derived bacterial cells of P. acnes which were isolated in Example 6.
FIG. 7 is a graph showing the result of intradermically injecting, after immunization by PepA, the patient strains 1-3 (P1-P. acnes to P3-P. acnes) to the abdominal midlines of mice and measuring inflammatory areas of the mice 5 days after the injection.

[2] = Example 4, 40 μg/50 μl intradermal, three times, area 5 days after P. acnes injection into abdominal midline
[3] = Example 4, 40 μg/50 μl intradermal, three times, area 5 days after injection
[4] = Example 5, same conditions as Example 4

Sequence | P (inflammatory area compared with control group given PBS) (P. acnes (ATCC6919); [2]) | anti-inflammatory effect against inflammation caused by P. acnes (P. acnes (ATCC6919); [3]) | P (inflammatory area compared with control group given PBS) (P. acnes (ATCC6919); [4]) | anti-inflammatory effect against inflammation caused by P. acnes (P. acnes (ATCC6919); [4]) | anti-inflammatory effect against injection of patient strains ([1]; each of patient strains 1-3, vs PBS) | P (inflammatory area compared with control group given PBS) ([1]; patient strain 1) | P (inflammatory area compared with control group given PBS) ([1]; patient strain 2) | P (inflammatory area compared with control group given PBS) ([1]; patient strain 3)
AIQEKYGDDRERAG (Propionibacterium acnes) [PepA, residues 90-103 of P. acnes membrane protein AAT84059] | 0.00865 | statistically significantly reduced inflammatory area | 0.0012 | statistically significantly reduced inflammatory area | statistically significantly reducing an inflammatory area | 0.0252 | 0.0476 | 0.0237
GRKPDTNKRSWHRKASR [PepB, reference compound] | 1 | do not exhibit the anti-inflammatory effect |  |  |  |  |  | 
IDQVREYRHRDDDDDEDPGEDG [PepC, reference compound] | 0.1655 | do not exhibit the anti-inflammatory effect |  |  |  |  |  | 
KDADKDNPTYQKV (Propionibacterium acnes) [PepD, residues 260-272 of P. acnes membrane protein YP_056445] |  |  | 0.00175 | statistically significantly reduced inflammatory area |  |  |  | 
